# Laboratory results published in patent US20250331542A1, “SWEETENER COMPOSITIONS” (Firmenich SA, priority 2022, published 2025).
# Columns and labels:
# Type in all cases: in vivo, human
# [1] = tested on: sweet taste of a water solution containing 4% sucrose; assay: Sensory panel, sweet taste in sucrose solution; settings: for Intensity (sweet): Sucrose solution; for sweet enhancing effect for a sucrose solution (in words): summary of Tables 1-12
# Description: (§1) Methodology: A panel consisted of 8 to 25 trained panelists evaluating the samples for taste properties (sweet, and/or sweet off-taste such as lingering) on a scale of −5 to 5 (−5 denoted strong masking effect and 5 denoted strong enhancing effect, 0 being the intensity of a reference water solution containing 4% sucrose or 0.02% SG95 stevia product).
# [2] = tested on: sweet taste of a water solution containing 0.02% SG95 stevia product; assay: Sensory panel, sweet taste in SG95 stevia product solution; settings: for Intensity (sweet): scale -5 to 5, 0 = reference 0.02% SG95; for sweet enhancing effect for an SG95 stevia product solution (in words): summary of Tables 5-6
# Description: as §1
# [3] = tested on: lingering (sweet off-taste) of a water solution containing 0.02% SG95 stevia product; assay: Sensory panel, lingering off-taste in SG95 stevia product solution
# Description: as §1
# [4] = dosage 10 ppm, scale -5 (strong masking) to 5 (strong enhancing), 0 = reference 4% sucrose
# [5] = dosage 40 ppm, scale -5 to 5, 0 = reference 4% sucrose
Structure (SMILES),"Intensity (sweet) [1, 4]",sweet enhancing effect for a sucrose solution (in words) [1],other results
"COc1ccc(C2CC(=O)c3c(cc(O)c([C@@H]4O[C@H](CO)[C@@H](O)[C@H](O)[C@H]4O)c3O)O2)cc1O (stereo partly drawn) [Compound 7, hesperetin 6-C-β-D glucoside]",0.57,significant sweet enhancing effect,–
"O=c1cc(-c2ccc(O)c(O)c2)oc2c([C@@H]3O[C@H](CO)[C@@H](O)[C@H](O)[C@H]3O)c(O)cc(O)c12 [Compound 18, orientin]",–,significant sweet enhancing effect,"Intensity (sweet) [1, 5]: 0.50"
"O=c1cc(-c2ccc(O)c(O)c2)oc2cc(O)c([C@@H]3O[C@H](CO)[C@@H](O)[C@H](O)[C@H]3O)c(O)c12 [Compound 17, Isoorientin]",–,sweet enhancing effect,"Intensity (sweet) [1, 5]: 0.25"
O=c1cc(-c2ccc(O)cc2)oc2c([C@@H]3O[C@H](CO)[C@@H](O)[C@H](O)[C@H]3O)c(O)cc(O)c12 [Compound 23],0.50,significant sweet enhancing effect,–
"O=C1CC(c2ccc(O)c(O)c2)Oc2cc(O)c([C@@H]3O[C@H](CO)[C@@H](O)[C@H](O)[C@H]3O)c(O)c21 (stereo partly drawn) [Compound 4, eriodictyol 6-C-β-D glucoside]",0.64,significant sweet enhancing effect,–
"O=C(CCc1ccc(O)cc1)c1c(O)cc(O[C@@H]2O[C@H](CO)[C@@H](O)[C@H](O)[C@H]2O)c([C@@H]2O[C@H](CO)[C@@H](O)[C@H](O)[C@H]2O)c1O [Compound 13, trilobatin 3′-C-β-D glucoside]",0.67,significant sweet enhancing effect,–
"O=C(CCc1ccc(O)c(O)c1)c1c(O)cc(O)c([C@@H]2O[C@H](CO)[C@@H](O)[C@H](O)[C@H]2O)c1O [Compound 20, aspalathin]",0.42,significant sweet enhancing effect,–
"O=C(CCc1ccc(O)cc1)c1c(O)cc(O)c([C@@H]2O[C@H](CO)[C@@H](O)[C@H](O)[C@H]2O)c1O [Compound 21, nothofagin]",0.46,significant sweet enhancing effect,Intensity (sweet) ([2]; dosage 20 ppm): 0.25; sweet enhancing effect for an SG95 stevia product solution (in words) [2]: sweet enhancing effect
"O=C1CC(c2ccc(O)cc2)Oc2cc(O)c([C@@H]3O[C@H](CO)[C@@H](O)[C@H](O)[C@H]3O)c(O)c21 (stereo partly drawn) [Compound 1, naringenin 6-C-β-D glucoside]",0.49,significant sweet enhancing effect,–
"COc1ccc(C2CC(=O)c3c(O)c([C@@H]4O[C@H](CO)[C@@H](O)[C@H](O)[C@H]4O)c(O)c([C@@H]4O[C@H](CO)[C@@H](O)[C@H](O)[C@H]4O)c3O2)cc1O (stereo partly drawn) [Compound 9, hesperetin 6,8-di-C-β-D glucoside]",0.31,sweet enhancing effect,–
"CC1OC(c2c(O)cc3c(c2O)C(=O)CC(c2ccc(O)cc2)O3)C(O)C(O)C1O (stereo not drawn) [Compound 16, naringenin 6-C-rhamnoside]",–,sweet enhancing effect,–
"O=C(CCc1ccc(O)cc1)c1c(O)c([C@@H]2O[C@H](CO)[C@@H](O)[C@H](O)[C@H]2O)c(O)c([C@@H]2O[C@H](CO)[C@@H](O)[C@H](O)[C@H]2O)c1O [Compound 22, Phloretin-3′,5′-di-C-β-D-glucoside]",–,sweet enhancing effect,"Intensity (sweet) ([2]; dosage 40 ppm): 0.25; sweet enhancing effect for an SG95 stevia product solution (in words) [2]: sweet enhancing effect; Intensity (lingering) ([3]; dosage 40 ppm, scale -5 (strong masking) to 5, 0 = reference 0.02% SG95): −0.33; off taste masking effect for an SG95 stevia product solution (in words) ([3]; lingering): lingering masking; Intensity (sweet) [1, 5]: 0.23"
"C[C@@H]1O[C@@H](c2c(O)cc3c(c2O)C(=O)CC(c2ccc(O)cc2)O3)[C@H](O)[C@H](O)[C@H]1O (stereo partly drawn) [Compound 15, naringenin 6-C-rhamnoside]",–,sweet enhancing effect,–
